Publication PMC6001238, “Iterative Chemical Engineering of Vancomycin Leads to Novel Vancomycin Analogs With a High in Vitro Therapeutic Index” (Frontiers in Microbiology, 2018)
In brackets after ≈: the same amount, converted by molar mass.

Tests used:
[1] = system: S. aureus VRSA; assay: MIC, broth microdilution, vancomycin-resistant S. aureus (VRSA); assay type: cell-based, Staphylococcus aureus; details: for MIC: Staphylococcus aureus VRSA, read-out: MIC; for MIC-fold improvement vs. vancomycin: VRSA, ratio of MIC of vancomycin and MIC of analogue
Procedure, shortened: (§1)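 MIC values come from broth microdilution run to CLSI susceptibility-testing standards. Ultrapure water and uninoculated broth served as controls. In one series, vancomycin at a final 10 μM was co-dosed with the analogue or comparator antibiotic.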

[2] = system: E. faecalis VRE 37; assay: MIC, broth microdilution, vancomycin-resistant E. faecalis VRE 37 (VanA); assay type: cell-based, Enterococcus faecalis; details: for MIC: Enterococcus faecalis VRE 37 (vancomycin-resistant), read-out: MIC; for MIC-fold improvement vs. vancomycin: VRE 37, ratio of MIC of vancomycin and MIC of analogue
Procedure, shortened: as §1

[3] = system: MRSA KS2; assay: MIC, broth microdilution, MRSA KS2; assay type: cell-based, Staphylococcus aureus; details: for MIC-fold improvement vs. vancomycin: MRSA KS2, ratio of MIC of vancomycin and MIC of analogue; for MIC: Staphylococcus aureus MRSA KS2, read-out: MIC
Procedure, shortened: as §1

[4] = system: MRSA KS1; assay: MIC, broth microdilution, MRSA KS1; assay type: cell-based, Staphylococcus aureus; details: for MIC-fold improvement vs. vancomycin: MRSA KS1, ratio of MIC of vancomycin and MIC of analogue; for MIC: Staphylococcus aureus MRSA KS1, read-out: MIC
Procedure, shortened: as §1

[5] = system: L1210, CEM and HeLa cell lines; assay: Cytostatic activity, average or summary over L1210, CEM and HeLa; assay type: cell-based; details: average of L1210, CEM and HeLa; read-out: Toxicity (IC50) Average
Procedure, shortened: (§2)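 Coulter counter cell counts after 37°C culture with compound; IC50 = concentration giving 50% growth inhibition vs negative control. Incubation: L1210 2 d, CEM 3 d, HeLa 4 d. Suspension density before mixing with an equal volume of dilution: 300,000–500,000 cells/mL.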

[6] = system: human cervix carcinoma (HeLa) cells; assay: Cytostatic activity, HeLa cell proliferation; assay type: cell-based; details: mean ± SD of three experiments; highest concentration tested 250 µM; 4 days; read-out: Toxicity (IC50) HeLa
Procedure, shortened: as §2

[7] = system: MRSA KS89; assay: MIC, broth microdilution, MRSA KS89; assay type: cell-based, Staphylococcus aureus; details: for MIC-fold improvement vs. vancomycin: MRSA KS8, ratio of MIC of vancomycin and MIC of analogue; for MIC: Staphylococcus aureus MRSA KS8, read-out: MIC
Procedure, shortened: as §1

[8] = system: human T-lymphocyte (CEM) cells; assay: Cytostatic activity, CEM cell proliferation; assay type: cell-based; details: mean ± SD of three experiments; highest concentration tested 250 µM; 3 days; read-out: Toxicity (IC50) CEM
Procedure, shortened: as §2

[9] = system: MRSA KS6; assay: MIC, broth microdilution, MRSA KS6; assay type: cell-based, Staphylococcus aureus; details: for MIC-fold improvement vs. vancomycin: MRSA KS6, ratio of MIC of vancomycin and MIC of analogue; for MIC: Staphylococcus aureus MRSA KS6, read-out: MIC
Procedure, shortened: as §1

[10] = system: E. faecalis VRE 29; assay: MIC, broth microdilution, vancomycin-resistant E. faecalis VRE 29 (VanA); assay type: cell-based, Enterococcus faecalis; details: for MIC: Enterococcus faecalis VRE 29 (vancomycin-resistant), read-out: MIC; for MIC-fold improvement vs. vancomycin: VRE 29, ratio of MIC of vancomycin and MIC of analogue
Procedure, shortened: as §1

[11] = system: E. faecalis VRE 6; assay: MIC, broth microdilution, vancomycin-resistant E. faecalis VRE 6 (VanA); assay type: cell-based, Enterococcus faecalis; details: for MIC: Enterococcus faecalis VRE 6 (vancomycin-resistant), read-out: MIC; for MIC-fold improvement vs. vancomycin: VRE 6, ratio of MIC of vancomycin and MIC of analogue
Procedure, shortened: as §1

[12] = system: S. aureus VSSA (ATCC 6538); assay: MIC, broth microdilution, vancomycin-sensitive S. aureus (VSSA/MSSA, ATCC 6538); assay type: cell-based, Staphylococcus aureus; details: for MIC: Staphylococcus aureus VSSA, read-out: MIC; for MIC-fold improvement vs. vancomycin: VSSA, ratio of MIC of vancomycin and MIC of analogue
Procedure, shortened: as §1

[13] = system: S. aureus VISA/HIP5827; assay: MIC, broth microdilution, vancomycin-intermediate S. aureus VISA HIP5827; assay type: cell-based, Staphylococcus aureus; details: for MIC: Staphylococcus aureus VISA/HIP5827, read-out: MIC; for MIC-fold improvement vs. vancomycin: VISA/HIP5827, ratio of MIC of vancomycin and MIC of analogue
Procedure, shortened: as §1

[14] = system: Murine leukemia (L1210) cells; assay: Cytostatic activity, L1210 cell proliferation; assay type: cell-based; details: mean ± SD of three experiments; highest concentration tested 250 µM; 2 days; read-out: Toxicity (IC50) L1210
Procedure, shortened: as §2

[15] = system: E. faecalis VSE 1; assay: MIC, broth microdilution, vancomycin-sensitive E. faecalis (VSE 1); assay type: cell-based, Enterococcus faecalis; details: for MIC: Enterococcus faecalis VSE 1 (vancomycin-sensitive), read-out: MIC; for MIC-fold improvement vs. vancomycin: VSE 1, ratio of MIC of vancomycin and MIC of analogue
Procedure, shortened: as §1

[16] = system: E. faecalis VRE 53; assay: MIC, broth microdilution, vancomycin-resistant E. faecalis VRE 53 (VanA); assay type: cell-based, Enterococcus faecalis; details: for MIC: Enterococcus faecalis VRE 53 (vancomycin-resistant), read-out: MIC; for MIC-fold improvement vs. vancomycin: VRE 53, ratio of MIC of vancomycin and MIC of analogue
Procedure, shortened: as §1

MIC [1] [µM] | MIC-fold improvement vs. vancomycin [1] | MIC [2] [µM] | MIC-fold improvement vs. vancomycin [2] | MIC-fold improvement vs. vancomycin [3] | MIC [3] [µM] | MIC-fold improvement vs. vancomycin [4] | MIC [4] [µM] | MIC-fold improvement vs. vancomycin [7] | MIC [7] [µM] | MIC-fold improvement vs. vancomycin [9] | MIC [9] [µM] | MIC [10] [µM] | MIC-fold improvement vs. vancomycin [10] | MIC [11] [µM] | MIC-fold improvement vs. vancomycin [11] | MIC [12] [µM] | SMILES | IC50 [5] [µM] | IC50 [6] [µM] | IC50 [8] [µM] | also measured
1.56 (≈ 2.59 µg/mL) | 64 | 1.56 (≈ 2.59 µg/mL) | 256 | 4 | 0.20 (≈ 0.332 µg/mL) | 4 | 0.20 (≈ 0.332 µg/mL) | 4 | 0.20 (≈ 0.332 µg/mL) | 8 | 0.10 (≈ 0.166 µg/mL) | 6.25 (≈ 10.4 µg/mL) | 64 | 1.56 (≈ 2.59 µg/mL) | 128 | 0.10 (≈ 0.166 µg/mL) | CCCCC#Cc1ccc(NC(=O)CNC(=O)[C@H]2NC(=O)[C@H]3NC(=O)[C@H](NC(=O)[C@@H]4NC(=O)[C@H](CC(N)=O)NC(=O)[C@H](NC(=O)[C@@H](CC(C)C)NC)[C@H](O)c5ccc(c(Cl)c5)Oc5cc4cc(c5O[C@@H]4O[C@H](CO)[C@@H](O)[C@H](O)[C@H]4O[C@H]4C[C@](C)(N)[C@H](O)[C@H](C)O4)Oc4ccc(cc4Cl)[C@H]3O)c3ccc(O)c(c3)-c3c(O)cc(O)cc32)cc1 [Vanc-37] | 52 | 118 ± 10 | 24 ± 4 | MIC-fold improvement vs. vancomycin [12]: 8; MIC [13]: 0.10 µM (≈ 0.166 µg/mL); MIC-fold improvement vs. vancomycin [13]: 64; IC50 [14]: 14 ± 7 µM; MIC [15]: 0.20 µM (≈ 0.332 µg/mL); MIC-fold improvement vs. vancomycin [15]: 8; MIC [16]: 3.13 µM (≈ 5.2 µg/mL); MIC-fold improvement vs. vancomycin [16]: 128
12.5 (≈ 20.1 µg/mL) | 8 | 12.5 (≈ 20.1 µg/mL) | 64 | 2 | 0.39 (≈ 0.628 µg/mL) | 1 | 0.78 (≈ 1.26 µg/mL) | 1 | 0.78 (≈ 1.26 µg/mL) | 1 | 0.78 (≈ 1.26 µg/mL) | 12.5 (≈ 20.1 µg/mL) | 32 | 6.25 (≈ 10.1 µg/mL) | 32 | 0.39 (≈ 0.628 µg/mL) | CN[C@H](CC(C)C)C(=O)N[C@H]1C(=O)N[C@@H](CC(N)=O)C(=O)N[C@H]2C(=O)N[C@H]3C(=O)N[C@H](C(=O)N[C@H](C(=O)NCC(=O)Nc4ccc(OC)cc4)c4cc(O)cc(O)c4-c4cc3ccc4O)[C@H](O)c3ccc(c(Cl)c3)Oc3cc2cc(c3O[C@@H]2O[C@H](CO)[C@@H](O)[C@H](O)[C@H]2O[C@H]2C[C@](C)(N)[C@H](O)[C@H](C)O2)Oc2ccc(cc2Cl)[C@H]1O [Vanc-5] | > 250 | > 250 | > 250 | MIC-fold improvement vs. vancomycin [12]: 2; MIC [13]: 0.39 µM (≈ 0.628 µg/mL); MIC-fold improvement vs. vancomycin [13]: 16; IC50 [14]: > 250 µM; MIC [15]: 0.78 µM (≈ 1.26 µg/mL); MIC-fold improvement vs. vancomycin [15]: 2; MIC [16]: 12.5 µM (≈ 20.1 µg/mL); MIC-fold improvement vs. vancomycin [16]: 32
